Data set [1] concerns Human prostate cancer (PC-3M). The data set is described as follows: Inhibition of NLKJ softgels on the growth of human prostate cancer in an animal model (Experiment Example 1). In kind it is in vivo. As to conditions: 100 mg/kg, ip × 3 (d 1, 5, 9); 21th day after inoculation. How it is done: Inhibition of NLKJ Softgels on the Growth of Human Prostate Cancer in an Animal Model
NLKJ softgels (NLKJ for injection), Batch No. 20010412;
Kanglaite Injection (Product of Zhejiang Kanglaite Pharmaceutical Co. LTD, containing NLKJ 10 g/100 ml), Batch No. 0011281-1.
Grafting Tumor: Human prostate cancer (PC-3M), subcultured by Pharmacological Department, Shanghai Institute of Pharmaceutical Industry.
1) Control Group (Normal saline);
2) NLKJ softgel (5 ml/kg, p.o.×10 d);
3) NLKJ softgel (10 ml/kg, p.o.×10 d);
4) Kanglaite Injection (25 ml/kg, i.v.×10 d);
5) Cyclophamide (CTX) (100 mg/kg, ip.×3 (d1, d5, d9)).
(§1) The treatment started from the second day after inoculation. […] The weights of tumors were compared among the groups. The result was judged based on the formula: […]
IR: Inhibition Rate of Tumor; Xcon: Average weight of tumors of the control group; Xtreat: Average weight of tumors of the treatment group.

Data set [2] in a line: Body weight of tumor-bearing nude mice (Experiment Example 1). Type of data set: in vivo, BALB/C nude mice. As to conditions: 100 mg/kg, ip × 3 (d 1, 5, 9).
From the text: as §1

In data set [3] the test system is Human prostate cancer (PC-3M). Kind of data set: Inhibition of NLKJ softgels in combination with Lupron on the growth of human prostate cancer in animal models (Experiment Example 2). Type of data set: in vivo. As to conditions: sc × 1, 21th day after inoculation. From the text:
Inhibition of NLKJ Softgels in Combination with Lupron on the Growth of Human Prostate Cancer in Animal Models […] for injection), Batch No. 011209; Lupron (Takeda Chemical Industries, Ltd., Osaka, Japan 541), Batch No. 47978 AP. […] Grafting Tumor: Human prostate cancer (PC-3M), subcultured by Pharmacological Department, Shanghai Institute of Pharmaceutical Industry. […] The weights of tumors were compared among the groups.

The values below come from US9492493B2, “Softgel of NLKJ for treating prostate diseases” (priority 2003, dated 2016).

Turning to `O=P1(N(CCCl)CCCl)NCCCO1` (centres unmarked) [CTX, Cyclophamide], in data set [1], the “Inhibition Rate(%)” value stood at 92.47% and the “Tumor Weight(g) (x ± SD)” value is recorded as 0.12 ± 0.04 g. Further, the “Body weight (g) Beg” value in data set [2] (beginning) is 17.0 g. Moreover, in data set [2] (end), the “Body weight (g) End” value turned out to be 17.8 g.

For `CCNC(=O)[C@@H]1CCCN1C(=O)[C@H](CCCNC(=N)N)NC(=O)[C@H](CC(C)C)NC(=O)[C@@H](CC(C)C)NC(=O)[C@H](Cc1ccc(O)cc1)NC(=O)[C@H](CO)NC(=O)[C@H](Cc1c[nH]c2ccccc12)NC(=O)[C@H](Cc1c[nH]cn1)NC(=O)[C@@H]1CCC(=O)N1` [Lupron, leuprolide acetate], the “Inhibition Rate(%)” value in data set [3] (0.75 mg/kg) was 37.08%; in data set [3] (1.50 mg/kg) it was 48.31%. Also, the “Tumor Weight(g) (x ± SD)” value in data set [3] (0.75 mg/kg) is recorded as 0.93 ± 0.23 g; in data set [3] (1.50 mg/kg) it was 0.77 ± 0.14 g.
